This is an account of results in patent US20240208992A1, “MACROCYCLES AS CFTR MODULATORS” (Idorsia Pharmaceuticals Ltd, priority 2021, published 2024).

The target in the experiment is human F508del-CFTR (Homo sapiens, UniProt P13569, DEL508-508). As to the kind of experiment: F508del-CFTR cell surface expression (corrector activity), DiscoveRx ß-galactosidase complementation chemiluminescence assay in recombinant U2OS cell line.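 As to all read-outs here: U2OS cells co-expressing ProLink-tagged F508del-CFTR and a membrane-anchored enzyme acceptor, where more surface CFTR restores β-galactosidase activity measured by chemiluminescence.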 To be noted: U2OS cell line, 16h compound incubation; for EC50: EC50, F508del-CFTR cell surface expression, geomean values; for Emax: U2OS, in relation to the Emax of the corrector lumacaftor (=100%), arithmetic mean values.
human F508del-CFTR, sequence (P13569 with tags, fused parts or gaps DEL508-508): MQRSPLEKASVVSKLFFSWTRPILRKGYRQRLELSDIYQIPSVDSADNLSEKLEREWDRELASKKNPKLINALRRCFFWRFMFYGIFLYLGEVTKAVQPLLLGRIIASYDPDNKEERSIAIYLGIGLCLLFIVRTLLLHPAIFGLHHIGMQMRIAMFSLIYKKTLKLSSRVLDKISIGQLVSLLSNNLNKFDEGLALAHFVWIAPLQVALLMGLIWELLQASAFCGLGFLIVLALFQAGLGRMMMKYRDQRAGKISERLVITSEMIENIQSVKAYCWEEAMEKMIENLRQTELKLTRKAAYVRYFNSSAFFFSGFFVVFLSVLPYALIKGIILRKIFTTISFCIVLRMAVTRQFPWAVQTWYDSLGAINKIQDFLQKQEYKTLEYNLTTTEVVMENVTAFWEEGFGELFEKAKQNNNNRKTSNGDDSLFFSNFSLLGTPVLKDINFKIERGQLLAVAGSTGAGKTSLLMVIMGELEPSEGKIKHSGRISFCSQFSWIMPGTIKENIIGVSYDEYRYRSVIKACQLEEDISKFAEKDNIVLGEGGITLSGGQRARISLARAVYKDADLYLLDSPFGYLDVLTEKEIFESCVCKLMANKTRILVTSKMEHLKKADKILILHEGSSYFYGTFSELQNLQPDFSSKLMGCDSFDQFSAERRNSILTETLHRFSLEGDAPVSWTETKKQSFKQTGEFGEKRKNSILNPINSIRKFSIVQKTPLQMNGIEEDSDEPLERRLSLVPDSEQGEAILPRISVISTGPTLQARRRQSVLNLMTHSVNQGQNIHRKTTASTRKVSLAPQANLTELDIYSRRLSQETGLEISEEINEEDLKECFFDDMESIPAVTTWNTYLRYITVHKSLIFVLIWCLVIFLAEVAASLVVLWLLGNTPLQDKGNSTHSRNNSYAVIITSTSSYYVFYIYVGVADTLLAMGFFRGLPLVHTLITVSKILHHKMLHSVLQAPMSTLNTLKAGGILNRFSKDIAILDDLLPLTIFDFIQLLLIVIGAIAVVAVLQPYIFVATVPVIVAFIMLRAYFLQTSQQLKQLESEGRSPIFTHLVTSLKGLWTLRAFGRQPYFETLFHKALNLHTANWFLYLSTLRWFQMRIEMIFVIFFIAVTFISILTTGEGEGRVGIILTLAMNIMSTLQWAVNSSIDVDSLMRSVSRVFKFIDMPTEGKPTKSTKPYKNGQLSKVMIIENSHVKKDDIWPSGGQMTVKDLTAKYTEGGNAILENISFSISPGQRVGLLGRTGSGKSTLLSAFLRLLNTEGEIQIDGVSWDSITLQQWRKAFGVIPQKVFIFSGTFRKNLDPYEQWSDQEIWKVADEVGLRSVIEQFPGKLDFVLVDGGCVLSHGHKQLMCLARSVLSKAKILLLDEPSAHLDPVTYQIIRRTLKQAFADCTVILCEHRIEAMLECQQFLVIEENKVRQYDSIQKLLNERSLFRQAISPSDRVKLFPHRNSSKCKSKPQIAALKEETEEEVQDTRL

The term EC50 denotes the midpoint of the concentration-response curve. By Emax is commonly meant the greatest response seen or fitted, relative to the assay's reference. Take `COc1cc2c(cc1OC)C(=O)N[C@H](C(=O)NCCc1ccc3c(c1)OCO3)CC(=O)N(C)[C@@H](CC(C)C)C(=O)N(CC[C@H]1CCCCO1)CC(=O)N[C@H](Cc1ccccc1)CO2` (racemic) [Example 155, (3R,9S,13S)-N-(2-(benzo[d][1,3]dioxol-5-yl)ethyl)-3-benzyl-9-isobutyl-17,18-dimethoxy-10-methyl-5,8,11,15-tetraoxo-7-(2-((RS)-tetrahydro-2H-pyran-2-yl)ethyl)-2,3,4,5,6,7,8,9,10,11,12,13,14,15-tetradecahydrobenzo[p][1]oxa[4,7,10,14]tetraazacycloheptadecine-13-carboxamide]: the EC50 came to 260 nM and the Emax is 144%.
For `COc1cccc2c1C(=O)N[C@H](C(=O)NCCC1CCC(C)(C)CO1)CC(=O)N(C)[C@@H](CC(C)C)C(=O)N(CCC1CCCCC1)CC(=O)N[C@H](Cc1ccccc1)CO2` (mixture of isomers) [Example 157, (3R,9S,13S)-3-benzyl-7-(2-cyclohexylethyl)-N-((RS)-2-(5,5-dimethyltetrahydro-2H-pyran-2-yl)ethyl)-9-isobutyl-16-methoxy-10-methyl-5,8,11,15-tetraoxo-2,3,4,5,6,7,8,9,10,11,12,13,14,15-tetradecahydrobenzo[p][1]oxa[4,7,10,14]tetraazacycloheptadecine-13-carboxamide] the same measures were 395 nM and 121%.
For `CC(C)C[C@H]1C(=O)N(C[C@H]2CCCCO2)CC(=O)N[C@H](Cc2ccccc2)COc2ccc3ccccc3c2C(=O)N[C@H](C(=O)NCCc2ccc3c(c2)OCO3)CC(=O)N1C` (racemic) [Example 162, (3RS,7S,13R)-N-(2-(benzo[d][1,3]dioxol-5-yl)ethyl)-13-benzyl-7-isobutyl-6-methyl-1,5,8,11-tetraoxo-9-(((R)-tetrahydro-2H-pyran-2-yl)methyl)-1,2,3,4,5,6,7,8,9,10,11,12,13,14-tetradecahydronaphtho[1,2-p][1]oxa[4,7,10,14]tetraazacycloheptadecine-3-carboxamide], the Emax worked out at 132%.
As for `CC(C)C[C@H]1C(=O)N(C[C@@H]2CCCCO2)CC(=O)N[C@H](Cc2ccccc2)COc2ccc3ccccc3c2C(=O)N[C@H](C(=O)NCCc2ccc3c(c2)OCO3)CC(=O)N1C` (racemic) [Example 163, (3RS,7S,13R)-N-(2-(benzo[d][1,3]dioxol-5-yl)ethyl)-13-benzyl-7-isobutyl-6-methyl-1,5,8,11-tetraoxo-9-(((S)-tetrahydro-2H-pyran-2-yl)methyl)-1,2,3,4,5,6,7,8,9,10,11,12,13,14-tetradecahydronaphtho[1,2-p][1]oxa[4,7,10,14]tetraazacycloheptadecine-3-carboxamide], the EC50 worked out at 377 nM and the Emax was determined as 185%.
`COc1cccc(CCNC(=O)[C@@H]2CC(=O)N(C)[C@@H](CC(C)C)C(=O)N(C[C@H]3CCCCO3)CC(=O)N[C@H](Cc3ccccc3)COc3ccc4ccccc4c3C(=O)N2)c1` (racemic) [Example 164, (3RS,7S,13R)-13-benzyl-7-isobutyl-N-(3-methoxyphenethyl)-6-methyl-1,5,8,11-tetraoxo-9-(((R)-tetrahydro-2H-pyran-2-yl)methyl)-1,2,3,4,5,6,7,8,9,10,11,12,13,14-tetradecahydronaphtho[1,2-p][1]oxa[4,7,10,14]tetraazacycloheptadecine-3-carboxamide]: the Emax turned out to be 167%.
As to `COc1cccc(CCNC(=O)[C@@H]2CC(=O)N(C)[C@@H](CC(C)C)C(=O)N(C[C@@H]3CCCCO3)CC(=O)N[C@H](Cc3ccccc3)COc3ccc4ccccc4c3C(=O)N2)c1` (racemic) [Example 165, (3RS,7S,13R)-13-benzyl-7-isobutyl-N-(3-methoxyphenethyl)-6-methyl-1,5,8,11-tetraoxo-9-(((S)-tetrahydro-2H-pyran-2-yl)methyl)-1,2,3,4,5,6,7,8,9,10,11,12,13,14-tetradecahydronaphtho[1,2-p][1]oxa[4,7,10,14]tetraazacycloheptadecine-3-carboxamide], the EC50 worked out at 287 nM and the Emax amounted to 149%.
